Experiments:
IL-12 (p70) = test: Inhibition of IL-12 production by cultured monocytes (ELISA); assay type: cell-based; details: nonadherent human monocytes
Procedure: Venous blood was obtained from consenting adults and separated over Ficoll-Hypaque. The PBMC fraction was washed and adjusted to five million cells per ml. […] The cells were stimulated with LPS, soluble OKT3, or cytokines, and after 24 or 48 h At 37° C. the supernatant was removed and frozen for cytokine assays. Monocytes were isolated by centrifugation over Percoll, washed, suspended in RPMI with 10% FCS, and aliquoted at 2 million cells per ml in Petriperm Teflon-coated culture dishes (Sigma). The ELISA for human IL-12 (p70) was purchased from Endogen (Woburn, Mass.).

DSS-induced colitis = test: Dextran-induced colitis; assay type: in vivo, C57BL/6 mice; details: for Complete clinical score: 0 (healthy) to 4; for Weight: in g; for Bleeding / Stool consistency as score: score 0-4; for Colon length: post mortem day 10
Procedure: Female, 8 week-old C57BL/6 mice (The Jackson Laboratories, Bar Habor, Me.) weighing 20-22 g were used in this study. The animals were housed in rooms at a controlled temperature and a 12 h day/night rhythm. They were fed standard mice chow pellets ad libitum, had free access to tap water supplied in bottles, and were acclimatized to the conditions at least seven days before they were used in experiments. Mice were killed by cervical dislocation under isoflurane anesthesia (Fort Dodge, Iowa City, Iowa).
; molecular weight 40 kDa; ICN, Aurora, Ohio) dissolved in sterile, distilled water ad libitum from day one to five followed by a five day observation period. […]. Body weights, occult blood or the presence of gross blood per rectum, and stool consistency were determined daily. Two investigators blinded to the protocol assessed the clinical score (table 1). Weight loss <1% compared to day 1 was counted as 0 points, weight loss of 1 to <5% as 1 point, 5 to <9.9% as 2 points, 10 to 20% as 3 points and more than 20% as 4 points. […] Bleeding was scored 0 points for no blood in hemoccult, 2 points for positive hemoccult, and 4 points for gross bleeding. These scores (body weight, stool consistency, rectal bleeding) were added and divided by 3 resulting in a total clinical score ranging from 0 (healthy) to 4 (maximal activity of colitis).
Post mortem (on day 10), the entire colon was removed from the caecum to the anus and the colon length was measured as an indirect marker of inflammation.

[1] = test system: mouse peritoneal macrophages; test: Nitric oxide production from mouse peritoneal macrophages (Griess); assay type: cell-based, C57BLy6 mice; details: TNF-α plus IFN-γ stimulation, 24 h
Procedure: C57BLy6 mice were injected i.p. with 1 ml of sterile thioglycolate broth and killed after 5 days, and macrophages were isolated using instillation of 10 ml of ice-cold PBS into the peritoneal cavity. The cells were centrifuged (350×g) and 3 ml of erythrocyte lysing reagent (PharMingen) was added for 10 min.
Seven milliliters of DMEM containing 5% FCS was added and the cells were centrifuged at 4° C. The cells were resuspended in DMEM at 1 million per ml and 0.5 ml were added to wells of a 48-well plate. […] After 24 h, NO levels in the supernatant were determined using the Griess reagent as described in Am.J.Physiol.Cell Physiol. (2001), 280, C441-C450.

[2] = test system: Con A-induced liver injury; test: Con A-induced liver injury, serum ALT; assay type: in vivo, C57B16 mice; details: single dose 50 mg/kg i.p. 1 h before Con A i.v.; vehicle 15.190±2.580
Procedure: After 24 h, serum amino-alanine transferase was measured. Intravenous injection of Con A results in hepatic cell death within 12-24 h with markedly elevated serum levels of hepatic enzymes such as alanine amino transaminase (ALT).

[3] = DSS + SAHA 10 mg/kg p.o. daily, day 1
[4] = DSS + SAHA 10 mg/kg p.o. daily, day 2
[5] = DSS + SAHA 10 mg/kg p.o. daily, day 3
[6] = DSS + SAHA 10 mg/kg p.o. daily, day 4
[7] = DSS + SAHA 10 mg/kg p.o. daily, day 5
[8] = DSS + SAHA 10 mg/kg p.o. daily, day 6
[9] = DSS + SAHA 10 mg/kg p.o. daily, day 7
[10] = DSS + SAHA 10 mg/kg p.o. daily, day 8
[11] = DSS + SAHA 10 mg/kg p.o. daily, day 9
[12] = DSS + SAHA 10 mg/kg p.o. daily, day 10
[13] = SAHA 10 mg/kg p.o. daily without DSS, day 1
[14] = SAHA 10 mg/kg p.o. daily without DSS, day 2
[15] = SAHA 10 mg/kg p.o. daily without DSS, day 3
[16] = SAHA 10 mg/kg p.o. daily without DSS, day 4
[17] = SAHA 10 mg/kg p.o. daily without DSS, day 5
[18] = SAHA 10 mg/kg p.o. daily without DSS, day 6
[19] = SAHA 10 mg/kg p.o. daily without DSS, day 7
[20] = SAHA 10 mg/kg p.o. daily without DSS, day 8
[21] = SAHA 10 mg/kg p.o. daily without DSS, day 9
[22] = SAHA 10 mg/kg p.o. daily without DSS, day 10

- Complete clinical score (DSS-induced colitis; [13]): 0.0 ± 0.0
- Weight (DSS-induced colitis; [13]): 18.9 ± 0.3
- Bleeding (DSS-induced colitis; [13]): 0.0 ± 0.0
- Stool consistency as score (DSS-induced colitis; [13]): 0.0 ± 0.0
- Complete clinical score (DSS-induced colitis; [14]): 0.0 ± 0.0
- Weight (DSS-induced colitis; [14]): 18.8 ± 0.4
- Bleeding (DSS-induced colitis; [14]): 0.0 ± 0.0
- Stool consistency as score (DSS-induced colitis; [14]): 0.0 ± 0.0
- Complete clinical score (DSS-induced colitis; [15]): 0.0 ± 0.0
- Weight (DSS-induced colitis; [15]): 18.9 ± 0.2
- Bleeding (DSS-induced colitis; [15]): 0.0 ± 0.0
- Stool consistency as score (DSS-induced colitis; [15]): 0.0 ± 0.0
- Complete clinical score (DSS-induced colitis; [16]): 0.0 ± 0.0
- Weight (DSS-induced colitis; [16]): 18.9 ± 0.3
- Bleeding (DSS-induced colitis; [16]): 0.0 ± 0.0
- Stool consistency as score (DSS-induced colitis; [16]): 0.0 ± 0.0
- Complete clinical score (DSS-induced colitis; [17]): 0.0 ± 0.0
- Weight (DSS-induced colitis; [17]): 19.0 ± 0.1
- Bleeding (DSS-induced colitis; [17]): 0.0 ± 0.0
- Stool consistency as score (DSS-induced colitis; [17]): 0.0 ± 0.0
- Complete clinical score (DSS-induced colitis; [18]): 0.0 ± 0.0
- Weight (DSS-induced colitis; [18]): 19.0 ± 0.3
- Bleeding (DSS-induced colitis; [18]): 0.0 ± 0.0
- Stool consistency as score (DSS-induced colitis; [18]): 0.0 ± 0.0
- Complete clinical score (DSS-induced colitis; [19]): 0.0 ± 0.0
- Weight (DSS-induced colitis; [19]): 18.9 ± 0.1
- Bleeding (DSS-induced colitis; [19]): 0.0 ± 0.0
- Stool consistency as score (DSS-induced colitis; [19]): 0.0 ± 0.0
- Complete clinical score (DSS-induced colitis; [20]): 0.0 ± 0.0
- Weight (DSS-induced colitis; [20]): 19.0 ± 0.3
- Bleeding (DSS-induced colitis; [20]): 0.0 ± 0.0
- Stool consistency as score (DSS-induced colitis; [20]): 0.0 ± 0.0
- Complete clinical score (DSS-induced colitis; [21]): 0.0 ± 0.1
- Weight (DSS-induced colitis; [21]): 19.1 ± 0.1
- Bleeding (DSS-induced colitis; [21]): 0.0 ± 0.0
- Stool consistency as score (DSS-induced colitis; [21]): 0.0 ± 0.0
- Complete clinical score (DSS-induced colitis; [22]): 0.0 ± 0.0
- Weight (DSS-induced colitis; [22]): 19.1 ± 0.2
- Bleeding (DSS-induced colitis; [22]): 0.0 ± 0.0
- Stool consistency as score (DSS-induced colitis; [22]): 0.0 ± 0.0
- Colon length (DSS-induced colitis; SAHA 10 mg/kg p.o. daily without DSS, water 10.5 ± 0.3): 10.1 ± 0.2 cm
Structure (SMILES): O=C(CCCCCCC(=O)Nc1ccccc1)NO [SAHA, suberoylanilide hydroxamic acid]
- reduction in LPS/IFN-γ-induced IL-12 production (IL-12 (p70); 200 nM): 55%
- reduction in LPS/IFN-γ-induced IL-12 production (IL-12 (p70); 400 nM): 86%
- Complete clinical score (DSS-induced colitis; [3]): 0.0 ± 0.0
- Weight (DSS-induced colitis; [3]): 19.1 ± 0.2
- Bleeding (DSS-induced colitis; [3]): 0.0 ± 0.0
- Stool consistency as score (DSS-induced colitis; [3]): 0.0 ± 0.0
- Complete clinical score (DSS-induced colitis; [4]): 0.0 ± 0.0
- Weight (DSS-induced colitis; [4]): 18.8 ± 0.2
- Bleeding (DSS-induced colitis; [4]): 0.0 ± 0.0
- Stool consistency as score (DSS-induced colitis; [4]): 0.0 ± 0.0
- Complete clinical score (DSS-induced colitis; [5]): 0.1 ± 0.1
- Weight (DSS-induced colitis; [5]): 19.1 ± 0.3
- Bleeding (DSS-induced colitis; [5]): 0.0 ± 0.0
- Stool consistency as score (DSS-induced colitis; [5]): 0.0 ± 0.0
- Complete clinical score (DSS-induced colitis; [6]): 0.2 ± 0.1
- Weight (DSS-induced colitis; [6]): 18.4 ± 0.4
- Bleeding (DSS-induced colitis; [6]): 0.0 ± 0.0
- Stool consistency as score (DSS-induced colitis; [6]): 0.0 ± 0.0
- Complete clinical score (DSS-induced colitis; [7]): 0.7 + 0.3
- Weight (DSS-induced colitis; [7]): 18.4 ± 0.4
- Bleeding (DSS-induced colitis; [7]): 1.2 ± 0.4
- Stool consistency as score (DSS-induced colitis; [7]): 0.8 ± 0.4
- Complete clinical score (DSS-induced colitis; [8]): 1.3 ± 0.3
- Weight (DSS-induced colitis; [8]): 18.7 ± 0.3
- Bleeding (DSS-induced colitis; [8]): 2.4 ± 0.4
- Stool consistency as score (DSS-induced colitis; [8]): 0.8 ± 0.4
- Complete clinical score (DSS-induced colitis; [9]): 1.5 ± 0.1
- Weight (DSS-induced colitis; [9]): 18.0 ± 0.4
- Bleeding (DSS-induced colitis; [9]): 2.0 ± 0.0
- Stool consistency as score (DSS-induced colitis; [9]): 2.0 ± 0.0
- Complete clinical score (DSS-induced colitis; [10]): 1.9 ± 0.1
- Weight (DSS-induced colitis; [10]): 16.9 ± 0.3
- Bleeding (DSS-induced colitis; [10]): 1.6 ± 0.4
- Stool consistency as score (DSS-induced colitis; [10]): 2.0 ± 0.0
- Complete clinical score (DSS-induced colitis; [11]): 1.5 ± 0.4
- Weight (DSS-induced colitis; [11]): 16.6 ± 0.4
- Bleeding (DSS-induced colitis; [11]): 1.2 ± 0.4
- Stool consistency as score (DSS-induced colitis; [11]): 1.2 ± 0.4
- Complete clinical score (DSS-induced colitis; [12]): 1.3 ± 0.4
- Weight (DSS-induced colitis; [12]): 16.6 ± 0.4
- Bleeding (DSS-induced colitis; [12]): 0.8 ± 0.4
- Stool consistency as score (DSS-induced colitis; [12]): 1.2 ± 0.4
- Colon length (DSS-induced colitis; DSS + SAHA 10 mg/kg p.o. daily, DSS + water 7.6 ± 0.2): 9.2 ± 0.2 cm
- effect on dextran-induced colitis (overall conclusion) (DSS-induced colitis; SAHA 10 mg/kg p.o. daily, days 1 to 10): effectively counteracts dextran-induced colitis
- reduction of NO production ([1]; 200 nM): 50%
- reduction of NO production ([1]; 400 nM): 80%
- reduction of NO production ([1]; 800 nM): 85%
- 24-h level of serum ALT (mean±SE) [2]: 8.144±2.091 units/liter
